Structures are written as SMILES. Active and inactive are the calls of the source. The rule behind the calls is not given here.

Here are results for four compounds from ChEMBL document CHEMBL3399981, “Novel neurotrophic phenylbutenoids from Indonesian ginger Bangle, Zingiber purpureum” (Bioorg Med Chem Lett, 2015).

For data set [1], the system named is PC-12. As to the kind of experiment: Neuritogenic activity in rat PC12 cells assessed as neurite outgrowth at 10 uM after 4 days by phase-contrast microscopy in presence of 2 ng/ml NGF. The class given is functional, cell-based.
A short description of data set [2]: Toxicity in rat PC12 cells at > 30 uM after 4 days by phase-contrast microscopy in presence of 2 ng/ml NGF. Type of data set: cell-based. Conditions: pc-12, 96 h.
Data set [3] has as its system PC-12. As to the kind of experiment: Neuritogenic activity in rat PC12 cells assessed as neurite outgrowth at 1 uM after 4 days by phase-contrast microscopy in presence of 2 ng/ml NGF. Type of data set: functional, cell-based.
The test system of data set [4] is PC-12. As to the kind of experiment: Neuritogenic activity in rat PC12 cells assessed as neurite outgrowth after 4 days by phase-contrast microscopy in presence of 2 ng/ml NGF. The class given is functional, cell-based.
In data set [5] the target is Amyloid-beta precursor protein (Homo sapiens) (UniProt P05067). Kind of data set: Inhibition of beta-sheet formation in amyloid beta-42 (unknown origin) assessed as decrease in ThT fluorescence after 1 hr by spectrophotometric plate reader.
Amyloid-beta precursor protein (Homo sapiens), sequence (P05067 whole entry): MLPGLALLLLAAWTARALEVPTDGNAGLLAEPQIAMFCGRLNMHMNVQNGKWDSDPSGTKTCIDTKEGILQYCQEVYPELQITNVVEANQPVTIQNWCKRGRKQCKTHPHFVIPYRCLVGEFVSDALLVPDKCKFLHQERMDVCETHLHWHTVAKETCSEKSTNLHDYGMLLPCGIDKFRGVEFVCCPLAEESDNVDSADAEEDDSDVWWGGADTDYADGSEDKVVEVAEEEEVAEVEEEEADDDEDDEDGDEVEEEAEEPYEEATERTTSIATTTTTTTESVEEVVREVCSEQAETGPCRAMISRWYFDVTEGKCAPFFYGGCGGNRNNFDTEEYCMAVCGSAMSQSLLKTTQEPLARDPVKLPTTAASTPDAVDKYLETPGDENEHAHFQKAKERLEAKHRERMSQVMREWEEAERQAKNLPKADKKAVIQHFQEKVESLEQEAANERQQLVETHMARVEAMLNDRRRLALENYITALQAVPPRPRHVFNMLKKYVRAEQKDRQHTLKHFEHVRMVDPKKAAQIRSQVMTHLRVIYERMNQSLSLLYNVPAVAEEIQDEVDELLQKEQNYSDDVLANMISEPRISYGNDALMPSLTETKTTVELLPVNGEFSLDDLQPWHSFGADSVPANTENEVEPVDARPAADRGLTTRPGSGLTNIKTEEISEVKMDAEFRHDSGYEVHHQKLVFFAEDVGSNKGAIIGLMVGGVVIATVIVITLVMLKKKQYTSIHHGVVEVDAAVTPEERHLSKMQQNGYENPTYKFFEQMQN
Data set [6] deals with PC-12. As to the kind of experiment: Neuritogenic activity in rat PC12 cells assessed as neurite outgrowth at 30 uM after 4 days by phase-contrast microscopy. Type of data set: functional, cell-based.
The target of data set [7] is Amyloid-beta precursor protein (Homo sapiens) (UniProt P05067). Kind of data set: Inhibition of beta-sheet formation in amyloid beta-42 (unknown origin) assessed as decrease in ThT fluorescence at 50 uM after 1 hr by spectrophotometric plate reader.
Data set [8] in a line: Toxicity in rat PC12 cells at > 10 uM after 4 days by phase-contrast microscopy in presence of 2 ng/ml NGF. Type of data set: cell-based. Conditions: pc-12, 96 h.
For data set [9], the system named is PC-12. As to the kind of experiment: Neuritogenic activity in rat PC12 cells assessed as neurite outgrowth at 1 to 30 uM after 4 days by phase-contrast microscopy in presence of 2 ng/ml NGF. Type of data set: functional, cell-based.

Consider `COc1cc(/C=C/C(=O)C2(C(=O)/C=C/c3ccc(O)c(OC)c3)CCC=C[C@@H]2c2cc(OC)c(OC)cc2OC)ccc1O`, for which the result with PC-12 [1] and in the data set on PC-12 [3] was Active. Further, the Activity entry in data set [2] was “Toxic”; with PC-12 [4], “Dose-dependent effect”.
A word on the inhibition: it is the change of the read-out against control, counted positive when it falls. With `COc1ccc(/C=C/[C@H]2CCC=C[C@@H]2c2ccc(OC)c(OC)c2)cc1OC`, the inhibition entry was “Dose-dependent effect” in [5] and 59.6% in [7]. Besides, the result in the data set on PC-12 [6] was Active.
Take `COc1cc(/C=C/C(=O)C2(C(=O)/C=C/c3ccc(O)c(OC)c3)CCC=C[C@@H]2c2ccc(OC)c(OC)c2)ccc1O`: the outcome in the data set with PC-12 [3] was Active. For the same compound, the Activity entry was “Dose-dependent effect” with PC-12 [4] and “Toxic” in data set [8]. Further, the inhibition result in data set [5] is “Dose-dependent effect”; in data set [7], 18.9%.
`COc1ccc([C@H]2[C@H](CCO)CC=C[C@@H]2c2ccc(OC)c(OC)c2)cc1OC`: in the data set with PC-12 [9], the result was inactive.
